The text below walks through data of the supplement of paper PMC7801607.

Test [1] deals with Plasmodium falciparum NF54 asexual blood stage.
Test [2] concerns Plasmodium falciparum Dd2 asexual blood stage.

For the compound `O=C(Nc1ccc(N2CCN(C(=O)c3ccccc3)CC2)cc1)c1ccc2c(c1)OCO2`, the results for the IC50 in test [1] and in test [2] were > 6 µM and > 5 µM, respectively.

In the case of `O=C(O)CSc1cc(NS(=O)(=O)c2cccc3cccnc23)c2ccccc2c1O`, the IC50 in test [1] is 2.57 µM; in test [2], > 5 µM. As to `NC1C2CC3CC(C2)CC1C3` (centres undefined), the values for the IC50 in test [1] and in test [2] were 5.7 µM and > 5 µM, respectively.

With `CCC(C)n1ncn(-c2ccc(N3CCN(c4ccc(OCC5COC(Cn6cncn6)(c6ccc(Cl)cc6Cl)O5)cc4)CC3)cc2)c1=O` (centres undefined), the IC50 in test [2] came out at 4.35 µM. Regarding `Cc1cc(CCCOc2c(C)cc(-c3noc(C(F)(F)F)n3)cc2C)on1`, the IC50 in test [2] was > 5 µM. On to `COc1cc(C(C(=O)NC2CCCCC2)N(C(=O)Cc2c[nH]c3ccccc23)c2ccc(C(C)C)cc2)cc(OC)c1OC` (centres undefined), for which the IC50 in test [2] is > 5 µM. For `O=C(Nc1ccc(Cl)c(C(F)(F)F)c1)C(CCCl)C(=O)Nc1ccc(Cl)c(C(F)(F)F)c1`, the IC50 in test [2] is > 5 µM. Consider `CC(C)Oc1cccc(NC(=O)c2ccccc2C(F)(F)F)c1`, for which the IC50 in test [2] was > 5 µM. Turning to `COc1cc2c(O)c3c(c(-c4ccc5c(c4)OCO5)c2cc1OC)C(=O)OC3`, the IC50 in test [2] is > 5 µM. The same measure, in the same setting: as for `O=S(=O)(Nc1cccc2cccnc12)c1ccccc1`, the figure is > 5 µM. Take `O=C(O)C[C@H]1CC[C@H](c2ccc(-c3ccc(Nc4ccc(C(F)(F)F)nc4)cn3)cc2)CC1`: in test [2], the IC50 is > 5 µM.

Regarding `Fc1ccc(-n2cc(Cn3c(-c4cccc(F)c4)nc4ccccc43)nn2)cc1`, the IC50 in test [2] is > 5 µM. Regarding `CN(O)C(=O)c1cc2c(CN3CCC[C@H]3C(N)=O)cn(Cc3ccc(F)cc3)c2cn1`, in test [2], the IC50 is > 5 µM.

On to `Nc1ccc2oc(=O)ccc2c1I`, for which, in test [2], the IC50 is > 5 µM. Take `O=C(O)c1ccc(-n2nc(-c3ccccc3O)nc2-c2ccccc2O)cc1`: in test [2], the IC50 is > 5 µM. With `O=C(NCc1ncc(C(F)(F)F)cc1Cl)c1c(Cl)cccc1Cl`, the IC50 in test [2] is > 5 µM.

`C[C@@H](O)[C@H](N)C(=O)NS(=O)(=O)c1cccc(-c2ccc3[nH]ncc3c2)c1`: in test [2], the IC50 is > 5 µM. With `OCCC#Cc1nc(-c2ccc(F)cc2)c(-c2ccncc2)n1CCCc1ccccc1`, in test [2], the IC50 was > 5 µM. With `CC(C)(C)c1ccc(OCCn2nc(C(=O)O)c3ccccc3c2=O)cc1`, in test [2], the IC50 was > 5 µM.

As for `O=S(=O)(Nc1ccc(-n2cccc2)cc1)c1ccc(Cl)c(Cl)c1`, in test [2], the IC50 was > 5 µM. On to `NC(=O)c1nccn([C@@H]2O[C@H](CO)[C@@H](O)[C@H]2O)c1=O`, for which, in test [2], the concentration for half-maximal inhibition (IC50) was > 5 µM. On to `CO[C@@]1(NC(=O)Cc2cccs2)C(=O)N2C(C(=O)O)=C(COC(N)=O)CS[C@@H]21`, for which, in test [2], the IC50 is > 5 µM.

Consider `CC[C@@]1(O)C(=O)OCc2c1cc1n(c2=O)Cc2cc3c(CN(C)C)c(O)ccc3nc2-1`, for which the IC50 in test [2] is 4.12 µM. This lies in the single-digit micromolar range. As for `Nc1nc(N)c2c(Sc3ccccc3)cccc2n1`, in test [2], the IC50 was > 5 µM. On the same count and under the same terms, as for `CCCCOC(=O)Nc1cc2nc(C3CCCCC3)[nH]c2cc1N(CC)CC`, the figure is 1.79 µM; as for `CC(=N)N1CC[C@H](SC2=C(C(=O)O)N3C(=O)[C@@H]([C@@H](C)O)[C@H]3C2)C1`, > 5 µM; as for `CC(C)(C)c1ccc(C(Cn2cccc(C(F)(F)F)c2=O)NC2Cc3ccccc3C2)cc1` (centres undefined), 4.6 µM. As for `N[C@H](CCC(=O)N[C@@H](Cc1c[nH]c2ccccc12)C(=O)O)C(=O)O`, in test [2], the IC50 was > 5 µM. For `COc1cccc(N2CCN(C3=Nc4c(F)cccc4[C@H](CC(=O)O)N3c3cc(C(F)(F)F)ccc3OC)CC2)c1`, the IC50 in test [2] was > 5 µM.

Turning to `CC[N+]1(C/C2=C/CCCCCC2)CCC(NC(=O)C2c3cc(Cl)ccc3Oc3ccc(Cl)cc32)CC1` (centres undefined), the IC50 in test [2] was > 5 µM. Regarding `N[C@@H]1CN(c2c(F)cc3c(=O)c(C(=O)O)cn([C@@H]4C[C@@H]4F)c3c2Cl)CC12CC2`, the IC50 in test [2] is > 5 µM. The same measure, in the same setting: the same measure for `CC(C)(C)c1cccc(-c2nc3cc(C(=N)N)ccc3[nH]2)c1O`: > 5 µM. For `C[C@H]1[C@@H](c2cccc(C(F)(F)F)c2)OC(=O)N1C(=O)NCc1cncc2ccccc12`, in test [2], the IC50 was > 5 µM. On the same count and under the same terms, as for `O=C(/C=C\n1cnc(-c2cc(C(F)(F)F)cc(C(F)(F)F)c2)n1)NNc1ccccn1`, the figure is > 5 µM; as for `O=C1[C@H](CC[C@H](O)c2ccc(F)cc2)[C@@H](c2ccc(O)cc2)N1c1ccc(F)cc1`, > 5 µM. As to `O=c1[nH]c(=O)n(Cc2cccc(Oc3ccccc3)c2)cc1Nc1ccccc1`, the IC50 in test [2] is > 5 µM. With `CCCCCCCc1[nH]c2ccccc2c(=O)c1O`, in test [2], the IC50 came out at 4.88 µM.

As for `CC(C)c1cc2c(cc1S(=O)(=O)O)[C@@]1(C)CCC[C@@](C)(C(=O)O)[C@@H]1CC2`, the IC50 in test [2] is > 5 µM. Turning to `CCCC1(C2CC2)c2cc(Cl)ccc2NC(=O)N1C` (centres undefined), in test [2], the IC50 was > 5 µM. As to `O=C(NC12CC3CC(CC(C3)C1)C2)c1cc2ccccc2[nH]1`, the IC50 in test [2] is > 5 µM. Turning to `Clc1ccc(COC(Cn2ccnc2)c2ccc(Cl)cc2Cl)c(Cl)c1` (centres undefined), in test [2], the IC50 was > 5 µM. Still for that read-out and setting: as for `Fc1ccc2c(/C=C/c3nnn[nH]3)c[nH]c2c1`, the figure is > 5 µM; as for `O=S(=O)(NCB(O)O)c1cc2c(Cl)ccc(Cl)c2s1`, > 5 µM; as for `CN(C(=O)C1(c2ccc(Cl)cc2)CCC1)c1ccccc1`, > 5 µM.

As for `O=C(CP(=O)(O)O)NCCc1cccc(Oc2ccccc2)c1`, in test [2], the IC50 was > 5 µM. For the compound `Cc1nc2ccc(Cl)cc2c(-c2ccccc2)c1CC(=O)O`, the IC50 in test [2] is > 5 µM. With `O=C(O)c1cc(-c2ccccc2)nc2ccccc12`, the IC50 in test [2] is > 5 µM.

Consider `Cc1nc(N(C)C(=O)Cc2ccc(-c3ccccn3)cc2)sc1S(N)(=O)=O`, for which the IC50 in test [2] is > 5 µM. On the same count and under the same terms, as for `C[C@H]1CC[C@]2(NC1)O[C@H]1C[C@H]3[C@@H]4CC[C@H]5C[C@@H](O)CC[C@]5(C)[C@H]4CC[C@]3(C)[C@H]1[C@@H]2C`, the figure is > 5 µM; as for `Nc1nc(-c2ccccc2)nc2[nH]nc(Nc3ccc(C(F)(F)F)cc3)c12`, 4.1 µM; as for `N[C@H]1CCC[C@H]1C(=O)O`, > 5 µM. On to `C[C@@H](NC(=O)c1ccccc1-c1ccccc1)B(O)O`, for which the IC50 in test [2] was > 5 µM.

Regarding `CC1(C)[C@H](C(=O)O)N2C(=O)C[C@H]2S1(=O)=O`, the 50% inhibitory concentration (IC50) in test [2] is > 5 µM. For `CCc1ccc(C2CC(C(F)(F)F)n3ncc(C(=O)NCc4ccc(OC)cc4)c3N2)cc1` (centres undefined), the IC50 in test [2] was > 5 µM. As to `CC(=O)Nc1cc(NS(=O)(=O)c2ccc(Cl)cc2)cc2c(Cl)n[nH]c12`, the IC50 in test [2] is > 5 µM. In the case of `Nc1nc(O)c(Br)c(-c2ccccc2)n1`, the concentration for half-maximal inhibition (IC50) in test [2] is > 5 µM. For the compound `CCNC(=O)Nc1cc(-c2ccccc2)c(-c2cncc(C(=O)O)c2)cn1`, the IC50 in test [2] is > 5 µM.

Take `COc1ccc(-n2cnc3cc(NCc4ccco4)ccc32)cc1`: in test [2], the IC50 is > 5 µM. Same read-out and setting: the same measure for `CCN(CC)S(=O)(=O)c1ccc(Cl)c(C(=O)Nc2sc3c(c2C#N)CCCC3)c1`: > 5 µM; for `CC[C@H]1OC(=O)[C@H](C)[C@@H](O[C@H]2C[C@@](C)(OC)[C@@H](O)[C@H](C)O2)[C@H](C)[C@@H](O[C@@H]2O[C@H](C)C[C@H](N(C)C)[C@H]2O)[C@](C)(O)C[C@@H](C)C(=O)[C@H](C)[C@@H](O)[C@]1(C)O`: > 5 µM. Consider `CCc1nc2ccccn2c1C(=O)NCc1ccccc1`, for which the IC50 in test [2] is > 5 µM. `O=C(O)/C=C/C=C/c1cccc(Oc2cc(Cl)cc(Cl)c2)c1`: the IC50 in test [2] was > 5 µM. For the compound `COc1ccc(NS(=O)(=O)c2ccc(Cl)s2)cn1`, the IC50 in test [2] is > 5 µM. Same read-out and setting: the same measure for `COc1ccc2sc3c(c2c1)NC(C)CNC3=O` (centres undefined): > 5 µM; for `O=C(CCc1ccc2c(c1)OCO2)NCc1ccc(-c2ccccc2F)cc1`: > 5 µM. The same measure, in the same setting: as for `CC(Oc1ccc(Cl)cc1Cl)C(=O)NCc1ccc2c(c1)OCO2` (centres undefined), the figure is > 5 µM; as for `Cc1cc(Nc2ccc(F)cc2)nc(SCc2nc3ccccc3[nH]2)n1`, > 5 µM. Take `COc1cc(Cc2cnc(N)nc2N)c2c(c1OC)OC(C1CC1)C=C2` (centres undefined): the IC50 in test [2] was > 5 µM. As for `O=C(NCCN1CCCCC1)c1cccc(C(F)(F)F)c1`, the IC50 in test [2] was > 5 µM.

For `Nc1nc(C(F)(F)F)cc2c1[nH]c(=O)n2Cc1ccccc1`, the IC50 in test [2] was > 5 µM. As for `Nc1nc(O)ncc1F`, the IC50 in test [2] is > 5 µM. Consider `c1cc(CN2CCCNCCNCCCNCC2)ccc1CN1CCCNCCNCCCNCC1`, for which, in test [2], the IC50 was > 5 µM. On to `O=C(c1nc2c(C(F)(F)F)cc(C3CC3)cn2c1Cl)N1CCN([C@H]2CC[C@H](O)CC2)C(=O)C1`, for which, in test [2], the IC50 is > 5 µM. In the case of `COC(=O)Nc1nc2cc(Sc3ccccc3)ccc2[nH]1`, the IC50 in test [2] is > 5 µM.

For `Cc1c[nH]c(=O)nc1NCc1ccccc1`, the IC50 in test [2] was > 5 µM. `OC(Cn1cncn1)(Cn1cncn1)c1ccc(F)cc1F`: the IC50 in test [2] was > 5 µM. As for `CO/N=C(\C(=O)N[C@@H]1C(=O)N2C(C(=O)OCOC(=O)C(C)(C)C)=C(/C=C\c3scnc3C)CS[C@H]12)c1csc(N)n1`, the IC50 in test [2] is > 5 µM. For `CCc1cc(Cc2cnc(N)nc2N)cc2c1N(C)CCC2C` (centres undefined), in test [2], the IC50 was > 5 µM. In the case of `O=C(Nc1ccccc1)N(Cc1cc(Br)ccc1O)c1ccc(F)cc1`, the IC50 in test [2] was > 5 µM.

Take `CC(=O)N1c2ccccc2NC2=C(C(=O)CC(C)(C)C2)C1c1ccc(OCc2ccccc2)cc1` (centres undefined): the IC50 in test [2] was > 5 µM. Turning to `Cc1ccc(N2CCC(CCOc3ccc(S(C)(=O)=O)cc3)CC2)nn1`, the IC50 in test [2] was > 5 µM.

With `CC(=O)N1CCN(c2ccc(OCC3COC(Cn4ccnc4)(c4ccc(Cl)cc4Cl)O3)cc2)CC1` (centres undefined), the IC50 in test [2] was > 5 µM. As for `CC(N)C12CC3CC(CC(C3)C1)C2` (centres undefined), the IC50 in test [2] is > 5 µM. As to `CCCCc1ccc(-c2cc(C(=O)O)cc(-c3ccc(Cl)cc3)n2)cc1`, the IC50 in test [2] is > 5 µM.

Take `CC(C)n1cnc2c(NCc3ccccc3)nc(NCc3ccccc3)nc21`: in test [2], the IC50 is > 5 µM. Take `O=S(=O)(NCB(O)O)c1ccc(-c2nnn[nH]2)cc1C(F)(F)F`: the IC50 in test [2] is > 5 µM.
